The text below walks through data of US8956594B2, “Fluoride-calcium compositions, dental products, and methods for providing dental fluoride” (ADA Foundation, priority 2005, dated 2015).

The conditions of this series: used in the absence of phosphate, in some trials. An excerpt: The anion may be any suitable stabilizing anion, by which is contemplated to be an anion the inclusion of which results in a composition that is stable for storage and transport as against precipitation of calcium fluoride, the composition not being stable (or as stable) for storage and transport as against precipitation of calcium fluoride in the absence of the anion. In some embodiments, the anion contains the O—PO—O moiety. […] Plural anions may be employed in a single composition.

Take `O=P(O)(O)OP(=O)(O)O` [pyrophosphate]: the “effectiveness as stabilizing anion” value was “not to be effective”.
